pIC50: −log10 of the molar value. “Also recorded” adds a separate entry of the source.
How the values were obtained:
[1] = test system: spontaneous pancreatic tumors (KPC mice); assay: KPC mouse model of advanced pancreatic cancer; type: in vivo; settings: for Tumor volume, average: N=6
Experimental: The KPC mouse model recapitulates many of the molecular, histopathologic, and clinical features of human disease (Westphalen and Olive, Cancer J. 2012, 18, 502-510). Combination therapy with gemcitabine was also evaluated in this model. Mice were enrolled after identification of spontaneously appearing tumors in the pancreas that were >100 mm^3 (as assessed by high-resolution ultrasonography).

[2] = test system: ID8 ovarian cancer; assay: ID8 syngeneic orthotropic ovarian cancer model; type: in vivo, mice
Description: FIG. 108 illustrates the effects of vehicle on flux at two timepoints, as a control for comparison with FIG. 109, in the ID8 syngeneic orthotropic ovarian cancer model.

[3] = test system: KPC pancreatic cancer; assay: KPC pancreatic cancer model; type: in vivo
[4] = biological target: CYP3A4 (Homo sapiens, UniProt P08684); assay: In vitro CYP metabolism and CYP interaction studies; type: in vitro ADME
CYP3A4, sequence (P08684 whole entry): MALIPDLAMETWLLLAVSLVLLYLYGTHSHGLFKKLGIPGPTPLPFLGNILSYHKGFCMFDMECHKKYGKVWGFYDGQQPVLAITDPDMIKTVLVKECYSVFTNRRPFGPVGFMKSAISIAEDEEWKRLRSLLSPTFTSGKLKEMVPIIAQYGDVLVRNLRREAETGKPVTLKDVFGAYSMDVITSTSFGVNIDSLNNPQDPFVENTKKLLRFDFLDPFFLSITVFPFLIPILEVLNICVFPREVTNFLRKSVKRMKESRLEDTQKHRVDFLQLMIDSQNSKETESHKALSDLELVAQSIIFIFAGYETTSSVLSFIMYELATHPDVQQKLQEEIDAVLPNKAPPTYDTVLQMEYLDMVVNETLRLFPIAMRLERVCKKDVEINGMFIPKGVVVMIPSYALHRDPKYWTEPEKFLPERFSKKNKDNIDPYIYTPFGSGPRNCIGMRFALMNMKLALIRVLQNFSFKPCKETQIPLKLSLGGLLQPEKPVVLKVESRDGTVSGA

[5] = test system: GPVI platelet aggregation; assay: GPVI platelet aggregation studies; type: cell-based; settings: read-out: IC50, GPVI platelet aggregation
[6] = In vitro metabolism in hepatocytes with 14C-labeled compound; type: in vitro ADME, mouse, rat, dog, rabbit, monkey, and human
[7] = test system: NSCLC (KrasLA2) lung tumors; assay: Genetic tumor model of NSCLC (KrasLA2); type: in vivo, mice; settings: 15 mg/kg
Description: The model is designed to have sporadic expression in single cells of G12D mutant Kras off its own promoter triggered by spontaneous intrachromosomal recombination. Johnson, et al. Nature 2001, 410, 1111-16. While the mutant Kras protein is expressed in a few cells in all tissues, tumor development is seen only in the lung at high penetrance.

[8] = test system: human platelet-mediated thrombosis; assay: In vivo human thrombus formation in the VWF HA1 mice model (laser-induced injury); settings: pretreated human platelets
Experimental: Constitutive or aberrant activation of the BCR signaling cascade has been implicated in the propagation and maintenance of a variety of B cell malignancies. […] J. Haematol. […] In fact, both Tec and BTK play an important role in the regulation of phospholipase Cγ2 (PLCγ2) downstream of the collagen receptor glycoprotein VI (GPVI) in human platelets. […] Biotechnol.
Injury to the vessel wall of arterioles ([…] diameter) was performed using a pulsed nitrogen dye laser (440 nm, Photonic Instruments) applied through a 20× water-immersion Olympus objective (LUMPlanFl, 0.5 numerical aperature (NA)) of a Zeiss Axiotech vario microscope. […] The extent of thrombus formation was assessed for 2 minutes after injury and the area (μm^2) of coverage determined (Image IQ, Andor Technology).
The BTK inhibitor-treated human platelets were fluorescently labeled and infused continuously through a catheter inserted into the femoral artery.

[9] = test system: KPC derived mouse pancreatic cancer cells; assay: KPC derived pancreatic cancer cells injected into the pancreas, Formula (XVIII) and/or gemcitabine; type: in vivo; settings: 15 mg/kg/BID orally
Experimental: In this study, KPC derived mouse pancreatic cancer cells (KrasG12D; Trp53R172H; Pdxl-Cre) were injected into the pancreases.
Single cell suspensions from tumor samples. Mouse tumor tissue was collected and stored in PBS/0.1% soybean trypsin inhibitor prior to enzymatic dissociation. Samples were finely minced with a scissors and mouse tissue was transferred into DMEM containing 1.0 mg/ml collagenase IV (Gibco), 0.1% soybean trypsin inhibitor, and 50 U/ml DNase (Roche) and incubated at 37° C. for 30 minutes with constant stirring while human tissue was digested in 2.0 mg/ml collagenase IV, 1.0 mg/ml hyluronidase, 0.1% soybean trypsin inhibitor, and 50 U/ml DNase for 45 minutes. Suspensions were filtered through a 100 micron filter and washed with FACS buffer (PBS/0.5% BSA/2.0 mM EDTA) prior to staining. Two million total cells were stained with antibodies as indicated. Intracellular detection of FoxP3 was achieved following permeabilization with BD Perm Buffer III (BD Biosciences) and eBioscience Fix/Perm respectively. Following surface staining, samples were acquired on a BD Fortessa and analyzed using FlowJo (Treestar) software.

[10] = test system: BCR; assay: In vivo potency: expression of activation markers CD69 and CD86 after BCR stimulation with IgM; settings: compared with ibrutinib; mice gavaged, sacrificed 3 h post-dose; flow cytometry; FIG. 137
Experimental: Mice were gavaged at increasing drug concentration and sacrificed at one time point (3 h post-dose). BCR is stimulated with IgM and the expression of activation markers CD69 and CD86 are monitored by flow cytometry to determine EC50's.

[11] = test system: CLL; assay: Clinical study of Formula (XVIII) in CLL; type: in vivo
Description: J. Med. 2013, 369, 32-42.

[12] = test system: chronic lymphocytic leukemia (CLL); assay: Clinical study of Formula (XVIII) in relapsed/refractory CLL
[13] = Glutathione binding and depletion in vitro; type: in vitro ADME
[14] = test system: NK cells; assay: NK cell degranulation (CD107a externalization, flow cytometry); type: cell-based, human; settings: 1 μM, HER18 target cells
Experimental: Lytic granule release was determined as follows. NK cells from healthy donors were enriched and cultured in the presence of target cells, monoclonal antibodies and test articles as described above. After 4 hours, the cultures were harvested and cells were pelleted, washed, and then stained for flow cytometry evaluation. Degranulation was evaluated via by flow cytometery by externalization of CD107a, a protein normally present on the inner leaflet of lytic granules, and gating on NK cells (CD3-CD16^+ lymphocytes). The percentage of CD107a positive NK cells was quantified by comparison with a negative control (isotype control, unstained cells/FMO). Control cultures (NK cells cultured without target cells, or NK, target cell co-cultures in the absence of appropriate monoclonal antibody) were also evaluated; all experiments were performed in triplicate.

[15] = biological target: T1, BTK (Mus musculus, UniProt P35991); assay: Molecular probe assay of irreversible BTK occupancy in MDSCs of tumor bearing PDA mice; type: in vivo; settings: 15 mg/kg BID, Day 8, 4 hours post dose (N=5)
T1 construct: MDSCs were purified from tumor bearing PDA mice; endogenous in cells; host or cells: granulocytic and monocytic MDSCs from tumour-bearing PDA mice
T1 sequence (P35991 whole entry): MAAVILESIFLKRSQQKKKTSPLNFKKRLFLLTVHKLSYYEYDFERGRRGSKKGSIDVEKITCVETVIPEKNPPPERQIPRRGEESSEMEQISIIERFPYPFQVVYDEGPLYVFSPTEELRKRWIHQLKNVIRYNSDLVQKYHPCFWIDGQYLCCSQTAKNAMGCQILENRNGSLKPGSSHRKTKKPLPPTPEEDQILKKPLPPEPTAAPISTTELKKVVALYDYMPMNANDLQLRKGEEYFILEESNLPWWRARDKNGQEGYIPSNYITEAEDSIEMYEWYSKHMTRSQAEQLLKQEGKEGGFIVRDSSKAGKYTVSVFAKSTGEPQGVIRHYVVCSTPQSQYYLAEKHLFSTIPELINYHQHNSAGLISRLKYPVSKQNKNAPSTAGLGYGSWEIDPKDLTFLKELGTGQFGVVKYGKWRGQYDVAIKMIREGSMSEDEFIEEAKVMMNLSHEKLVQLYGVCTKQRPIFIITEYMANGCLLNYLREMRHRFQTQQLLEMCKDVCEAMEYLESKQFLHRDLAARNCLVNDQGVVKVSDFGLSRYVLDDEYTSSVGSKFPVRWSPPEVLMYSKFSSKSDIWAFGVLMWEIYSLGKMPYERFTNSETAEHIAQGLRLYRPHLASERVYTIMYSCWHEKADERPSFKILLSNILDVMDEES
Description: A molecular probe assay was used to calculate the percent irreversible occupancy of total BTK.

## CC#CC(=O)N1CCC[C@H]1c1nc(-c2ccc(C(=O)Nc3ccccn3)cc2)c2c(N)nccn12 [Formula (XVIII), (S)-4-(8-amino-3-(1-(but-2-ynoyl)pyrrolidin-2-yl)imidazo[1,5-a]pyrazin-1-yl)-N-(pyridin-2-yl)benzamide]
[1]; 15 mg/kg BID orally
  CD8+ cells in tumor tissues: significant increase in CD8^+ cells
  Immunosuppressive TAMs, MDSCs and Tregs in tumor tissues: significantly reduced
  Pancreatic cancer growth and animal survival: substantially slowed pancreatic cancer growth and increased animal survival
[1]; day 14
  Survival: 6/6
[1]; day 28
  Survival: 5/6
[1]; day 28, 15 mg/kg BID orally
  Tumor volume, average: 272 mm^3
[1]; predose, 15 mg/kg BID orally
  Tumor volume, average: 165 mm^3
[2]; FIG. 114
  immunosuppressive tumor associated Tregs: significant reduction
[2]; FIG. 115
  CD8+ T cells: increase
[2]; syngeneic murine model, in comparison to vehicle, FIG. 111
  ID8 ovarian cancer growth: impairs
[2]; tumor-bearing mice, in comparison to vehicle, FIG. 110
  immunosuppressive tumor associated lymphocytes: significant reduction
[2]; tumor-bearing mice, FIG. 112
  total B cells: significant reduction
[2]; tumor-bearing mice, FIG. 113
  B regulatory cells (Bregs): significant reduction
[3]; FIG. 128
  immunosuppressive TAMs (CD11b+Ly6ClowF4/80+Csf1r+) in tumor tissues: significantly reduced
[3]; FIG. 129
  immunosuppressive MDSCs (Gr1+Ly6CHi) in tumor tissues: significantly reduced
[3]; FIG. 130
  immunosuppressive Tregs (CD4+CD25+FoxP3+) in tumor tissues: significantly reduced
[4]; in vitro
  CYP catalyzed loss of parent drug: metabolized by CYP3A4
[4]; nonclinical CYP interaction studies
  CYP drug-drug interaction potential: very unlikely to cause clinical drug-drug interactions
[5]
  pIC50: 5.94
[6]; hepatocytes
  Unique human metabolite: No unique human metabolite was identified
[6]; mouse, rat, dog, rabbit, monkey, and human hepatocytes
  Metabolites in hepatocytes: two mono-oxidized metabolites and a glutathione conjugate
[7]
  Number of tumors: fewer overall tumors
  Tumor volumes: significant decrease in tumor volumes versus vehicle
[8]
  Effect on human platelet-mediated thrombus formation: does not interfere with thrombus formation; also recorded: no significant effect on human platelet-mediated thrombus formation
[9]
  Tumor burden: reduction in tumor burden
[10]
  potency at inhibiting expression of activation markers CD69 and CD86: more potent
[11]; CLL patients, FIG. 157
  apoptosis: increased
[11]; CLL, compared with ibrutinib, FIG. 138
  sum of the product of greatest diameters (SPD): decreases more rapidly
[11]; CLL, relative to ibrutinib (Byrd et al. 2013), FIG. 138
  absolute lymphocyte count (ALC): much smaller relative increase and much faster decrease
[11]; patients treated, FIG. 158
  CXCL12 levels: decrease
[11]; patients treated, FIG. 159
  CCL2 levels: decrease
[12]; 100 mg QD (N = 8)
  PD (progressive disease): 0 (0) n (%)
[12]; 175 mg QD (N = 8)
  PD (progressive disease): 0 (0) n (%)
[12]; 250 mg QD (N = 7)
  PD (progressive disease): 0 (0) n (%)
[12]; All Cohorts (N = 31)
  PD (progressive disease): 0 (0) n (%)
  PR (partial response): 22 (71) n (%)
  PR + L (partial response with lymphocytosis): 7 (23) n (%)
[12]; CLL patients, present study
  Time of treatment at which the median % change in SPD achieved the same status: 7 months
[12]; CLL patients, Log-Rank p-value 0.0206
  PFS (Kaplan-Meier) in comparison to ibrutinib: An improvement in survival and a reduction in risk
[12]; Grade 1/2, All (N = 44)
  Treatment-related adverse event: Headache: 7 (16) n (%)
[12]; Grade 1, All (N = 44)
  Treatment-related adverse event: Diarrhea: 4 (9) n (%)
[12]; human, in vivo
  Dose-limiting toxicities (DLTs): No DLTs were observed
  Grade of adverse events: only grade 1 AEs were observed
  Lymphocytosis: A lack of lymphocytosis was observed
  Treatment-related adverse event: Increased tendency to bruise: 6 (14) n (%)
  Treatment-related adverse event: Petechiae: 3 (7) n (%)
  Treatment-related serious adverse events (SAEs): No treatment-related serious adverse events (SAEs) were observed
[12]; to date
  Progression in patients with the 17p deletion: no 17p patients have progressed
[13]
  Glutathione binding and depletion: binds to glutathione but does not deplete glutathione in vitro
[14]
  Inhibition of trastuzumab-stimulated NK cell degranulation: no inhibitory effect
[15]
  Irreversible BTK occupancy in granulocytic and monocytic MDSCs: Complete BTK occupancy
